According to patent publication US20110104055A1, “SUBSTITUTED N-ARYL BENZAMIDES AND RELATED COMPOUNDS FOR TREATMENT OF AMYLOID DISEASES AND SYNUCLEINOPATHIES” (priority 2002, published 2011):

Legend:
[1] = target: T1, IAPP fibrils (Homo sapiens, UniProt P10997); experiment: Thioflavin T fluorometry, disruption of IAPP fibrils; type: biochemical; details: 3 days; for % inhibition of IAPP (Thioflavin T fluorometry): 25 μM IAPP, 37° C.
T1 construct: purchased Bachem Inc
T1 sequence (P10997 34-70 limits assumed): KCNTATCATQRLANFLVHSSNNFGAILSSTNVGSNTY
Protocol: The biological activity of the compounds provided herein as disruptors/inhibitors of Alzheimer's disease β-amyloid protein (Aβ) fibrils, type 2 diabetes IAPP fibrils and Parkinson's disease NAC fibrils was assessed by determining the efficacy of the compounds to cause a disassembly/disruption of pre-formed amyloid fibrils of Alzheimer's disease (i.e. consisting of Aβ 1-42 fibrils), IAPP fibrils and Parkinson's disease NAC fibrils. […] In this assay Thioflavin T binds specifically to fibrillar amyloid, and this binding produces a fluorescence enhancement at 485 nm that is directly proportional to the amount of fibrils present. The higher the fluorescence, the greater the amount of fibrils present (Naki et al, Lab. Invest. 65:104-110, 1991; Levine III, Protein Sci. 2:404-410, 1993; Amyloid: Int. J. Exp. Clin. Invest. 2:1-6, 1995). The disruption of Aβ 1-42, even in its monomeric form, was confirmed by a study involving the use of SDS-PAGE and Western blotting methods.
In this assay Thioflavin T binds specifically to fibrillar amyloid, and this binding produces a fluorescence enhancement at 485 nm that is directly proportional to the amount of amyloid fibrils formed. The higher the fluorescence, the greater the amount of amyloid fibrils formed (Naki et al., Lab. Invest. 65:104-110, 1991; Levine III, Protein Sci. 2:404-410, 1993; Amyloid: Int. J. Exp. Clin. Invest. 2:1-6, 1995).
In this study, 25 μM of IAPP (Bachem Inc) was incubated at 37° C. for 3 days, either alone, or in the presence of one of the compounds or EDTA (at IAPP:test compound weight ratios of 1:1, 1:0.1, 1:0.01 or 1:0.001). Following 3 days of co-incubation, 50 μl of each incubation mixture was transferred into a 96-well microtiter plate containing 150 μl of distilled water and 50 μl of a Thioflavin T solution (i.e. […] Thioflavin T in 250 mM phosphate buffer, pH 6.8). The fluorescence was read at 485 nm (444 nm excitation wavelength) using an ELISA plate fluorometer after subtraction with buffer alone or compound alone, as blank).

[2] = target: T2, Aβ 1-42 (Homo sapiens, UniProt P05067); experiment: SDS-PAGE/Western blot of Aβ 1-42 after incubation with compounds; type: biochemical; details: 25 μM pre-fibrillized Aβ 1-42, 37° C., 3 days, filtrate of 0.2 μm filter, 6E10 antibody
T2 construct: 25 μM of pre-fibrillized Aβ 1-42 (Bachem Inc) was incubated at 37° C; purchased Bachem Inc
T2 sequence (P05067 672-713): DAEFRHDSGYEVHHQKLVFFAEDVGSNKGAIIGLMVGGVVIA
Protocol: In this latter study, triplicate samples of pre-fibiillized Aβ 1-42 (25 μM) was incubated at 37° C. for 3 days, alone or in the presence of the compounds or EDTA. Five micrograms of each sample was then filtered through a 0.2 μm filter. Protein recovered from the filtrate was then loaded, and ran on a 10-20% Tris-Tricine SDS-PAGE, blotted to nitrocellulose and detected using an Aβ-antibody (clone 6E10; Senetek).

O=C(O)CN(CCN(CC(=O)O)CC(=O)O)CC(=O)O [EDTA]
% inhibition of IAPP (Thioflavin T fluorometry) ([1]; IAPP:test compound wt/wt ratio 1:0.001): 0.0 +/− 0.56%
% inhibition of IAPP (Thioflavin T fluorometry) ([1]; IAPP:test compound wt/wt ratio 1:0.01): 4. +/− 3.152%
% inhibition of IAPP (Thioflavin T fluorometry) ([1]; IAPP:test compound wt/wt ratio 1:0.1): 1.6 +/− 5.86%
% inhibition of IAPP (Thioflavin T fluorometry) ([1]; IAPP:test compound wt/wt ratio 1:1): 0.0 ± 1.31%
disruption/disassembly of preformed IAPP fibrils, in words ([1]; Thioflavin T fluorometry, all concentrations tested): no significant inhibition/disruption
detection of Aβ 1-42 monomers (~4 kilodalton band) after incubation [2]: detected as a ˜4 kilodalton band
